The values that follow come from publication PMC8776094, “Reactive Oxygen Species Production Is Responsible for Antineoplastic Activity of Osmium, Ruthenium, Iridium and Rhodium Half-Sandwich Type Complexes with Bidentate Glycosyl Heterocyclic Ligands in Various Cancer Cell Models” (International Journal of Molecular Sciences, 2022).

Data set [1] deals with A2780 cells. The experiment in a line: Annexin V-propidium iodide double staining, cell death, flow cytometry. It is filed as cell-based. Particulars: 2 h treatment; Os-3 2.68 µM, Os-4 3.25 µM, Os-5 2.84 µM, Os-6 0.70 µM, Ir-6 1.63 µM. Here is the method:
We selected the Os-3, Os-4, Os-5, Os-6 and Ir-6 complexes for further study, based on their strong cytostatic activity on the ovarian cancer cell lines, but there was a lack of activity on primary fibroblasts. […] Similar to previous approaches, as propidium iodide or Annexin V positivity is an early feature of cell death, we treated cells for 2 h and then performed double-staining with Annexin V—propidium iodide.
The proportion of dead cells was assessed using the Annexin V–propidium iodide assay and was measured using flow cytometry with a BD FacsCalibur (BD Biosciences, Franklin Lakes, NJ, USA) instrument and the FITC Annexin V/Dead Cell Apoptosis kit (Life Technologies, Eugene, OR, USA), according to the manufacturer’s instructions, in a process similar to that in [43]. Quadrants were set, based on the FITC and PI values observed for the vehicle-treated cells.
Here, 1 × 10^6 A2780 cells were plated in 6-well plates and were treated with the corresponding complexes (Os-3 at 2.68 µM, Os-4 at 3.25 µM, Os-5 at 2.84 µM, Os-6 at 0.70 µM, Ir-6 at 1.63 µM,) and 300 µM hydrogen peroxide for 2 h. Cells were then stained with Annexin V and propidium iodide (PI), then, cells were subjected to flow cytometry as described in the Materials and Methods section. The percentage of cells in the quadrants was plotted. Data are represented as average ± SD, from three biological replicates; individual assays were performed in duplicate. Normality was tested, on all datasets. A two-step transformation was used to achieve normal distribution. Statistical significance was determined using a two-way ANOVA test; all measurement points were compared with each other. ** and *** indicate statistically significant differences between vehicle-treated (control) and treated cells ([…] or 300 µM H2O2) corresponding to the same quadrant (e.g., vehicle-treated double-negative cells vs. Os-3-treated double-negative cells) at p < 0.01 and p < 0.001, respectively.
In general terms: A flow cytometer gives signals particle by particle.

Data set [2] is described as follows: Determination of the distribution coefficients (logD), n-octanol/PBS. It is filed as physicochemical. Particulars: n-octanol / PBS pH = 7.40, rt. On the procedure: Before starting the experiments, n-octanol was saturated with an aqueous PBS solution (pH = 7.40) and vice versa. A solution of the appropriate complex (approximately 0.2–0.3 mg) in a mixture of 2.50 mL pre-saturated n-octanol and 2.50 mL pre-saturated PBS buffer was made, and the resulting mixture was then vigorously stirred for 3 days at rt. Based on our previous NMR stability experiments, this time is long enough to reach equilibrium among the various ionic complex species. Due to the lipophilic/hydrophilic features of the complexes, those with benzoyl protection could primarily be found in the n-octanol, while the complexes with O-peracetylated and O-deprotected ligands were in the aqueous PBS phase. The corresponding separated solution was centrifuged (ScanSpeed 406G instrument, 4000 RPM for 5 min) and the absorption of the ”stock solution” was determined (VWR UV-1600PC Spectrophotometer, 270–420 nm). Then, 2.00 mL of the stock solution was vigorously stirred with 16.00 mL of pre-saturated n-octanol or PBS solution. After one day had passed, the phases were separated, centrifuged, and the absorption of the solution was measured again. From the absorption difference of the stock solutions, the distribution coefficient (D) was determined using previously described formulae [71].

Data set [3] has as its system A2780 cells. Description: SRB assay with or without 1 mM vitamin E co-treatment. It is filed as cell-based. The conditions noted are these: 48 h SRB. On the procedure:
To assess the causative role of oxidative stress in cytostasis induced by the compounds we identified in this study, we co-treated cells with the compounds and with vitamin E, a lipophilic antioxidant.
The assay was performed similarly to the method used in [73]. Cells were seeded in 96-well plates the day before the assay. Cells were treated with the compounds for 48 h, with the exception of L428, where 96 h of treatment was applied. Cells were fixed with 10% trichloroacetic acid (TCA). Fixed cells were washed in distilled water 3 times, followed by staining with SRB (0.4 m/V% dissolved in 1% acetic acid) for 10 min. The stained cells were washed in 1% acetic acid 5 times; the acetic acid was removed, and the cells were left to dry. Protein-bound SRB was released by adding 100 µL 10 mM Tris base. Plates were measured in a plate photometer (Thermo Scientific Multiscan GO spectrophotometer, Waltham, MA, USA) at 540 nm. On each plate, wells were designed to contain untreated cells. In calculations, the readings for these wells were considered as 1 and all readings were expressed relative to these values.
Figure 10 Assessment of selected Os(II) and Ir(III) complexes (Os-3‒Os-6, Ir-6) for cytostatic activity. Here, 1.5 × 10^3 A2780 cells were plated onto 96-well plates. Cells were treated with the compounds in the concentrations indicated for 48 h for an SRB assay with or without 1 mM vitamin E. Data are represented as average ± SD, from three biological replicates; individual assays were performed in duplicate. Values were normalized for vehicle-treated cells. Absorbance for vehicle-treated cells is equal to 1. Normality was assessed using the d’Agostino and Pearson test. Os-3, Os-4, Os-6, Ir-6 data had normal distribution, while in Os-5, normality was achieved using the Box-Cox normalization method. Statistical difference was assessed using a two-way ANOVA test; all measurement points were compared with each other. *, ** and *** indicate statistically significant differences between vehicle-treated (control) cells and those treated with a compound but not with vitamin E, at p < 0.05 and p < 0.001, respectively. #, ##, and ### indicate statistically significant differences between vehicle-treated (no Vitamin E) and the cells treated with a Vitamin E at p < 0.05, p < 0.01 and p < 0.001, respectively. !, !!, and !!! indicate statistically significant differences between vitamin E and vehicle-treated cells (control) and the cells treated with vitamin E and a compound at p < 0.05, p < 0.01 and p < 0.001, respectively.

`Cc1c(C)c(C)[c-](C)c1C.F[P-](F)(F)(F)(F)F.O=C(OCC1OC(n2cc(-c3ccccn3)nn2)C(OC(=O)c2ccccc2)C(OC(=O)c2ccccc2)C1OC(=O)c1ccccc1)c1ccccc1.[Cl][Ir+2]` (mixture of isomers) [Ir-6]: the “induction of cell death (Annexin V / propidium iodide positivity)” value in data set [1] was “None of the complexes induced cell death”. Moreover, the LogD (usually the decadic logarithm of the distribution of all forms, ionised or not, between an organic phase and buffer at a given pH) in data set [2] is given as 2.36. In addition, in data set [3], the “effect of vitamin E on the cytostatic properties of the complex” value (“effect of vitamin E” for short) is “potently inhibited by vitamin E”.

Regarding `Cc1ccc(C(C)C)cc1.F[P-](F)(F)(F)(F)F.O=C(OCC1OC(c2nnc(-c3ccccn3)o2)C(OC(=O)c2ccccc2)C(OC(=O)c2ccccc2)C1OC(=O)c1ccccc1)c1ccccc1.[Cl][Os+]` (mixture of isomers) [Os-3], the “induction of cell death (Annexin V / propidium iodide positivity)” value in data set [1] is “None of the complexes induced cell death”. In data set [2], this compound had a LogD of 3.32. Besides, the “effect of vitamin E” value in data set [3] was “potently inhibited by vitamin E”.

Take `Cc1ccc(C(C)C)cc1.F[P-](F)(F)(F)(F)F.O=C(OCC1OC(c2nnc(-c3ccccn3)o2)C(OC(=O)c2ccccc2)C(OC(=O)c2ccccc2)C1OC(=O)c1ccccc1)c1ccccc1.[Cl][Os+]` (mixture of isomers) [Os-4]: the “induction of cell death (Annexin V / propidium iodide positivity)” value in data set [1] is “None of the complexes induced cell death”. The compound further had a LogD in data set [2] of 2.87. Also, in data set [3], the “effect of vitamin E” value is given as “potently inhibited by vitamin E”.

Consider `Cc1ccc(C(C)C)cc1.F[P-](F)(F)(F)(F)F.O=C(OC1COC(c2nnc(-c3ccccn3)o2)C(OC(=O)c2ccccc2)C1OC(=O)c1ccccc1)c1ccccc1.[Cl][Os+]` (mixture of isomers) [Os-5], for which, in data set [1], the “induction of cell death (Annexin V / propidium iodide positivity)” value is “None of the complexes induced cell death”. The compound further returned a LogD in data set [2] of 2.36. In data set [3], the “effect of vitamin E” value was “potently inhibited by vitamin E”.

Consider `Cc1ccc(C(C)C)cc1.F[P-](F)(F)(F)(F)F.O=C(OCC1OC(n2cc(-c3ccccn3)nn2)C(OC(=O)c2ccccc2)C(OC(=O)c2ccccc2)C1OC(=O)c1ccccc1)c1ccccc1.[Cl][Os+]` (mixture of isomers) [Os-6], for which the “induction of cell death (Annexin V / propidium iodide positivity)” value in data set [1] is reported as “None of the complexes induced cell death”. The LogD in data set [2] came out at 2.33. Moreover, in data set [3], the “effect of vitamin E” value is on record as “potently inhibited by vitamin E”.
